Experimental data as given in ChEMBL document CHEMBL1201862, “PubChem BioAssay data set” (2004).
Blank lines part the entries; values can stand above or below the compound they belong to. Activity calls are given as the source filed them.

Columns and labels:
[1] = molecular target: Nucleotide-binding oligomerization domain-containing protein 2 (Homo sapiens, UniProt Q9HC29); test: NOD2 signaling inhibitors, analog potency, SAR follow-up, cell-based, set 3 (AID 2799); type: functional
HEK293 = test: SAR analysis of compounds that are cytotoxic to HEK293 - Set 3. [Related pubchem assays (depositor defined):AID1575, AID1578, AID1848, AID1849, AID2001, AID2333, AID2334, AID2335, AID2337, AID2469]; type: functional, cell-based; conditions: Homo sapiens
[2] = molecular target: T1, Nucleotide-binding oligomerization domain-containing protein 1 (Homo sapiens, UniProt Q9Y239); test: SAR analysis of compounds that inhibit NOD1 - Set 3. [Related pubchem assays (depositor defined):AID1566, AID1575, AID1578, AID1849, AID1852, AID2333, AID2335, AID2466]; type: functional
T1 sequence (Q9Y239 whole entry): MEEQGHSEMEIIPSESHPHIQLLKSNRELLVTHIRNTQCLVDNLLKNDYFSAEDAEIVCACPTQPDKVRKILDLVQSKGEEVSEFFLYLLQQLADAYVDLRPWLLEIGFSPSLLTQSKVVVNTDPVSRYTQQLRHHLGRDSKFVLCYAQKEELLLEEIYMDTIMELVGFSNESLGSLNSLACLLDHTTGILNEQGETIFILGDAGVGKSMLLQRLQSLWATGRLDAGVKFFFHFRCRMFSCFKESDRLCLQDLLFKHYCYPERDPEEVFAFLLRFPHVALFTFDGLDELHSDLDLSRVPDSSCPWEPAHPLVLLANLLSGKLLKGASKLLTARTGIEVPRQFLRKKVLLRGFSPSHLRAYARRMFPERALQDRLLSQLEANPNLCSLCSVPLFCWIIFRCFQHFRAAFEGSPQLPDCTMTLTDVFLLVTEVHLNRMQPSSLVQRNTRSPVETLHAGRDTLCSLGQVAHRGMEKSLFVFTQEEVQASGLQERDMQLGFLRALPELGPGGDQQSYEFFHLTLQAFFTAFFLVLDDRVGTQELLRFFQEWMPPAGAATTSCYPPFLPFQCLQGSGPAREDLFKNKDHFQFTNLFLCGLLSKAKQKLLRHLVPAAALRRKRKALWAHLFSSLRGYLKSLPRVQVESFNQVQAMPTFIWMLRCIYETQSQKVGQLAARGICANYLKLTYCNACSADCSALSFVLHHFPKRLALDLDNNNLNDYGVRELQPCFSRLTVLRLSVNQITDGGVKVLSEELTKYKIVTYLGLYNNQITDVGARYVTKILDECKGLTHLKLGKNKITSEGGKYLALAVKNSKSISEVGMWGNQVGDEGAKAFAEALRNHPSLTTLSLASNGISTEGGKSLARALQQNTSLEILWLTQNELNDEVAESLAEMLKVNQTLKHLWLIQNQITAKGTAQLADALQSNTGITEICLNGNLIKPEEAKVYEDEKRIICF

Tumor necrosis factor = Tumor necrosis factor (Homo sapiens, UniProt P01375); test: TNFa-triggered NF-kB activation inhibitors, SAR follow-up, cell-based, set 3 (AID 2801); type: functional
[3] = Counterscreen for AddAB inhibitors: absorbance-based bacterial cell-based high throughput dose response assay for inhibitors of bacterial viability. [Related pubchem assays (depositor defined):AID435030, AID449728, AID449731, AID488942, AID488955, AID488956]; type: functional
Exodeoxyribonuclease V = Exodeoxyribonuclease V (Escherichia coli (strain K12), UniProt P04993+P07648+P08394); test: E. coli RecBCD inhibitors, dose response, counter-screen for AddAB inhibitor project, absorbance, V66 E. coli, mutant T4 phage (AID 492957); type: functional, cell-based, Escherichia coli str. K-12 substr. MG1655
[4] = molecular target: G-protein coupled receptor 55 (Homo sapiens, UniProt Q9Y2T6); test: GPR55 antagonists, SAR follow-up, counter-screen for GPR35 antagonist project, imaging, image-based (AID 2397); type: functional
[5] = molecular target: Delta-type opioid receptor (Homo sapiens, UniProt P41143); test: SAR Analysis of Antagonists of the DOR Receptor using an Image-Based Assay - Set 2. [Related pubchem assays (depositor defined):AID1777, AID1785, AID1786, AID1966, AID2133, AID2136, AID2284, AID2285, AID2357]; type: functional
[6] = molecular target: T2, Kappa-type opioid receptor (Homo sapiens, UniProt P41145); test: SAR analysis of small molecule agonists of the kappa opioid receptor via a luminescent beta-arrestin assay - Set 2. [Related pubchem assays (depositor defined):AID1777, AID1785, AID1786, AID1966, AID2133, AID2136, AID2284, AID449737]; type: functional
[7] = molecular target: T2, Kappa-type opioid receptor; test: SAR analysis of Antagonists of the Kappa Opioid Receptor (KOR) using an Image-Based Assay - Set 2. [Related pubchem assays (depositor defined):AID1777, AID1785, AID1786, AID1966, AID2133, AID2136, AID2284, AID2285, AID2348]; type: functional

T2 sequence (P41145 whole entry): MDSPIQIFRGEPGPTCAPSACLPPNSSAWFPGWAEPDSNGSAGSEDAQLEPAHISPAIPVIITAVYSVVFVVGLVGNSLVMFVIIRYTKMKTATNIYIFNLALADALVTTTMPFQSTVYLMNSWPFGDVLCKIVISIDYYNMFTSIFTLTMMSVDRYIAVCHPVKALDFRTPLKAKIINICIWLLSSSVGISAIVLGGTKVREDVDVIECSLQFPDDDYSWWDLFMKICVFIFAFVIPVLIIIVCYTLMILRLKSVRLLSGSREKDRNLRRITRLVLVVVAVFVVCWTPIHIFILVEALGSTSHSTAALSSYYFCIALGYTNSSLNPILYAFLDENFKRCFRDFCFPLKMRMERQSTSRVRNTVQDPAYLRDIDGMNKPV
Tumor necrosis factor, sequence (P01375 whole entry): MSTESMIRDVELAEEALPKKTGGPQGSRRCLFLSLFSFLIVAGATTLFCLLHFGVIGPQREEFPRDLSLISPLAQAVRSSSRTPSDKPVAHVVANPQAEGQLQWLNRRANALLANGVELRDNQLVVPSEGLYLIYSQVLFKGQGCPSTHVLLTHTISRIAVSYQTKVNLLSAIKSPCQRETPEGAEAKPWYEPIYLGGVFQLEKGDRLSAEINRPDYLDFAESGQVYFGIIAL
Delta-type opioid receptor, sequence (P41143 whole entry): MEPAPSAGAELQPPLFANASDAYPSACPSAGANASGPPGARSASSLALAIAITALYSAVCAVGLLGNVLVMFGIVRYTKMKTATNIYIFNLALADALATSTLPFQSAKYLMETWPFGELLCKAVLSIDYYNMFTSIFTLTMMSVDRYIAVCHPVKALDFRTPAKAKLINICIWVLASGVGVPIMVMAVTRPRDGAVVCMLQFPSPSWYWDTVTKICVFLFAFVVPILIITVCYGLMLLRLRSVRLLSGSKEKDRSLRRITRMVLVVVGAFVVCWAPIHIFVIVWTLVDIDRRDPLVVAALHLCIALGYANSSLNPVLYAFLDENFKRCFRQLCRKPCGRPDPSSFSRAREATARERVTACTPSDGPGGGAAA
G-protein coupled receptor 55, sequence (Q9Y2T6 whole entry): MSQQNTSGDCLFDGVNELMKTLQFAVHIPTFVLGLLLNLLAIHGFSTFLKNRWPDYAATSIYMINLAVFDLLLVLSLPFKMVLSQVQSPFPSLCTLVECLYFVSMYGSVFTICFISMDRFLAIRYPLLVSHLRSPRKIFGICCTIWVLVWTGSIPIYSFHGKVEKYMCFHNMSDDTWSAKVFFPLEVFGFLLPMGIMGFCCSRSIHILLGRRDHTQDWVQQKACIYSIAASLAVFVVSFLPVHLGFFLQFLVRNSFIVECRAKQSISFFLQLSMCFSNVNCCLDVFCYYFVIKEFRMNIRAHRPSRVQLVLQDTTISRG
Nucleotide-binding oligomerization domain-containing protein 2, sequence (Q9HC29 whole entry, the tested form may be a part): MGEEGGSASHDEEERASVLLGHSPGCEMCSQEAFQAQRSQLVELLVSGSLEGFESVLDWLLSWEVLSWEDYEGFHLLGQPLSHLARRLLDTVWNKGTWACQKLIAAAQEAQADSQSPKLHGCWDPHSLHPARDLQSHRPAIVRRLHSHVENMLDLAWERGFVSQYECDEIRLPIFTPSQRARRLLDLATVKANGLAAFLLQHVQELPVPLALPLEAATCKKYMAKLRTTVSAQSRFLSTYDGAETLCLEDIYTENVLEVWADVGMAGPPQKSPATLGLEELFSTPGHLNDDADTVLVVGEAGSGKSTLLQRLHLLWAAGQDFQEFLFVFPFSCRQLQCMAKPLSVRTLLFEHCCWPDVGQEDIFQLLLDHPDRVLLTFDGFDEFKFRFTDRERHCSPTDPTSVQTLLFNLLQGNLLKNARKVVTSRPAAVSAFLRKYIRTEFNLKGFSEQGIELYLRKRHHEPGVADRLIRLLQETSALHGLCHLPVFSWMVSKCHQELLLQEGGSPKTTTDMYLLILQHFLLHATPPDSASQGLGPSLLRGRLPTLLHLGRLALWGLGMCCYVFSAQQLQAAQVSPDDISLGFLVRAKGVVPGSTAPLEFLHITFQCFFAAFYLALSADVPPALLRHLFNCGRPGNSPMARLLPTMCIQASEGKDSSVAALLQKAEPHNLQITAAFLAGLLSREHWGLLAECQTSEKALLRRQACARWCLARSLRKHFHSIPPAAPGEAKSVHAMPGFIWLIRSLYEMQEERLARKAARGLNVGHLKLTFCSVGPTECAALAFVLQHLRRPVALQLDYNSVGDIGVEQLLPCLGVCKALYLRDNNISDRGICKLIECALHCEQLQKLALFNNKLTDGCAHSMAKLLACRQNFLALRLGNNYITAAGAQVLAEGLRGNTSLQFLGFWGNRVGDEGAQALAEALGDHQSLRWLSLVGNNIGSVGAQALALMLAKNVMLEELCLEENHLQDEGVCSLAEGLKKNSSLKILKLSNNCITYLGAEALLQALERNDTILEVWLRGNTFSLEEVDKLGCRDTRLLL

Compound: CCCCn1c(SCCCc2ccccc2)nc2c1c(=O)[nH]c(=O)n2C
IC50 [1]: 11.9 µM (active)
IC50 (HEK293): > 20 µM (inactive)
IC50 [2]: > 20 µM (inactive)
IC50 (Tumor necrosis factor): 17.7 µM (active)

Compound: O=C(NNC(=O)c1cc2ccccc2cc1O)Nc1ccc(Br)cc1
IC50 [3]: > 119 µM (inactive)
IC50 (Exodeoxyribonuclease V): > 119 µM (inactive)

IC50 [4]: 4.95 µM (active)
Compound: Cc1c(C(=O)Nc2ccc3c(c2)OCCO3)sc2ncnc(N3CCCCC3C)c12 (stereo not given)

IC50 [5]: > 32 µM (inactive)
EC50 [6]: 0.0523 µM (active)
IC50 [7]: > 32 µM (inactive)
Compound: CC[C@@](C)(C(=O)Nc1ccc(Br)cc1)N(Cc1ccco1)C(=O)c1ccccn1
